How the values were obtained:
[1] = system: thromboxane A2 (TXA2); test: rabbit aortal strip model, test (a), using the TXA2 mimetic U46619 as agonist; assay type: cell-based
Source text: (a) The rabbit aortal strip model devised by Piper and Vane (Nature. […]. 223, 29-35) using as agonist the TXA2 mimetic agent known as U46619 (R. L. Jones et alia in "Chemistry, Biochemistry and Pharmacological Activity of Prostanoids", eds. S. M. Roberts and F. Scheinman, at p.211, Pergamon Press, 1979);

[2] = system: hypertensive effect of TXA2 mimetic agent U46619; test: hypertensive effect of U46619 in anaesthetised rats, test (d); assay type: in vivo, rats (Alderley Park strain); conditions: Rattus norvegicus, iv; intravenously via the jugular vein, anaesthetised male rats, blood pressure at carotid artery, n=3; read-out: ED50 (dose necessary to produce 50% of the maximum hypertensive effect)
Method: (d) Male rats (Alderley Park strain) are anaesthetised with sodium pentobarbital and blood pressure is monitored at the carotid artery. The TXA2 mimetic agent known as U46619 is administered intravenously via the jugular vein and an ED50 (dose necessary to produce 50% of the maximum hypertensive effect) is established (n=3). The ED50 for U46619 is approximately 5 μg/kg. A test compound is then administered either intravenously via the jugular vein or orally via a cannula directly into the stomach and the animal challenged with an ED50 dose of U46619, five minutes after dosing with test compound and then successively every ten minutes until the hypertensive effect of U46619 is no longer blocked.

Row | SMILES | pA2 [1] | ED50 [2]
1 | O=C(O)CCC/C=C\C[C@@H]1CC[C@H](OCc2ccccc2)C[C@@H]1c1ccccc1 (relative stereo) [Example 16, 5(Z)-7-([1,2,4-cis]-4-benzyloxy-2-phenylcyclohexyl)heptenoic acid] | 5.9 | –
2 | CCCCC[C@H](O)/C=C/[C@@H]1[C@@H](C/C=C\CCCC(=O)O)[C@H]2CO[C@@H]1C2 [Example U46619] | – | ~5 µg/kg

Source: patent US4736057A, “Cyclohexane derivatives” (Imperial Chemical Industries PLC, priority 1983, dated 1988)
